ChEMBL document CHEMBL1143298, “Second generation 4-(4-methyl-1H-indol-5-ylamino)-2-phenylthieno[2,3-b]pyridine-5-carbonitrile PKCtheta inhibitors” (Bioorg Med Chem Lett, 2009)
Values after ≈ are worked out from the molar mass of the structure shown.

Assays:
[1] = target: Protein kinase C delta type (Homo sapiens, UniProt Q05655); assay: Inhibition of human full length PKCdelta
[2] = target: Tyrosine-protein kinase Lyn (Homo sapiens, UniProt P07948); assay: Inhibition of Lyn
[3] = target: Protein kinase C theta type (Homo sapiens, UniProt Q04759); assay: Inhibition of human full length PKCtheta
Chain of Protein kinase C theta type (Q04759 whole entry): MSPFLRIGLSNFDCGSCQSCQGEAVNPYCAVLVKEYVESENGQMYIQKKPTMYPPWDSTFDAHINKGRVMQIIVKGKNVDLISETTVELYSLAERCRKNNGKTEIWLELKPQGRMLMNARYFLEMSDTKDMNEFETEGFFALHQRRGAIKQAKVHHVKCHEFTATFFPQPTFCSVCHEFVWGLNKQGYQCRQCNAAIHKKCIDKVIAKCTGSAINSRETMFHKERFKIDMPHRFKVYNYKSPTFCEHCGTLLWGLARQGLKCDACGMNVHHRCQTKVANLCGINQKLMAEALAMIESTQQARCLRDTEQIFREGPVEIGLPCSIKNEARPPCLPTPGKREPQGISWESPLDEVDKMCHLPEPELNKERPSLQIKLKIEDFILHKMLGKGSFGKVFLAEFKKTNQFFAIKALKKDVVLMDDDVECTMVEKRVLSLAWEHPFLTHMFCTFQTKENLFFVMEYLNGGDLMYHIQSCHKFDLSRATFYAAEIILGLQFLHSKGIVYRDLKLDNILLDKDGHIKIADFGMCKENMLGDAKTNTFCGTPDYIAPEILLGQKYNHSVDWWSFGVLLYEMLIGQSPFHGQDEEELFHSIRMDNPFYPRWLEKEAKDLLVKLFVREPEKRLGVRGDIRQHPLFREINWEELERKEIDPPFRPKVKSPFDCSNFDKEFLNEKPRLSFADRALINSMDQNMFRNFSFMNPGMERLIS

Homo sapiens = organism: Homo sapiens; assay: Selectivity ratio of IC50 for human full length PKCdelta to IC50 for human full length PKCtheta
[4] = target: Tyrosine-protein kinase Lck (Homo sapiens, UniProt P06239)
Chain of Tyrosine-protein kinase Lck (P06239 whole entry): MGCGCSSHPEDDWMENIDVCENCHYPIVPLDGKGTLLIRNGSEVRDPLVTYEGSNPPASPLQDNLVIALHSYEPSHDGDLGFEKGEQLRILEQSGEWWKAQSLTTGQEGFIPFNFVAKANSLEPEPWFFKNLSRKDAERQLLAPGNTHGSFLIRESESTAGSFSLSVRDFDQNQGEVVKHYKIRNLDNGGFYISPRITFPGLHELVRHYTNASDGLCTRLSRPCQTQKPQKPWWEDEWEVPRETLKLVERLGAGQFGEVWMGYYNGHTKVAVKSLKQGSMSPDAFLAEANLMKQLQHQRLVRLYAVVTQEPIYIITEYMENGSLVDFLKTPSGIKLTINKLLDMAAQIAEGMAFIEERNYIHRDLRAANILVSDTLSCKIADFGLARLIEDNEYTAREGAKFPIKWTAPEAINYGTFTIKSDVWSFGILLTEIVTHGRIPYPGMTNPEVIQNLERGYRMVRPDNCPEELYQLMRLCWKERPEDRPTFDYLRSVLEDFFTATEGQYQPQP

[5] = target: T1, Protein kinase C epsilon type (Homo sapiens, UniProt Q02156); assay: Inhibition of human full length PKCepsilon
T1 sequence (Q02156 whole entry): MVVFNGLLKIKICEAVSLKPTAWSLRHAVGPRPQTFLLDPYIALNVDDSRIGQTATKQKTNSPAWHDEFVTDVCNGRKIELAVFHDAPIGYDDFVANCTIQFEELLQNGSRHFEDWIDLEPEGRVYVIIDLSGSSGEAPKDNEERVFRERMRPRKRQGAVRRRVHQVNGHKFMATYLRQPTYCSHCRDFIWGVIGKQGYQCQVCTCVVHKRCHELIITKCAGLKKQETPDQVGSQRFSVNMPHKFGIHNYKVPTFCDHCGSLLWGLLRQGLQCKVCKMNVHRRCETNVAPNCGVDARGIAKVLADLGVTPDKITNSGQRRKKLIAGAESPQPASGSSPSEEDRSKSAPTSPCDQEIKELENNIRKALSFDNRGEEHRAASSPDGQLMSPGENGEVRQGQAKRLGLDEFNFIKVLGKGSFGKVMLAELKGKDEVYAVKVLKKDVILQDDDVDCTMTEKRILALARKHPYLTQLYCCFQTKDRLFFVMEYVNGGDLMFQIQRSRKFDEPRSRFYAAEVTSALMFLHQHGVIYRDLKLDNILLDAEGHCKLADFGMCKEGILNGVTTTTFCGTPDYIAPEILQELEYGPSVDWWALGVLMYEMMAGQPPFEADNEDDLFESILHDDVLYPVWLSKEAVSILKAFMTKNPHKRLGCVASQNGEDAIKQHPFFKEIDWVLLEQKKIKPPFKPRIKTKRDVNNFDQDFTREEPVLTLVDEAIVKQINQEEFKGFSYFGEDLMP

[6] = target: Protein kinase C eta type (Homo sapiens, UniProt P24723); assay: Inhibition of human full length PKCeta
[7] = Metabolic stability in human liver microsomes; assay type: ADME, Microsome
[8] = Inhibition of p38
[9] = Inhibition of PDGFR
[10] = Solubility at pH 7.4; assay type: physicochemical; details: buffer
[11] = Membrane permeability by PAMPA; assay type: ADME; details: read-out: permeability
[12] = target: Proto-oncogene tyrosine-protein kinase Src (Homo sapiens, UniProt P12931); assay: Inhibition of Src
Chain of Proto-oncogene tyrosine-protein kinase Src (P12931 2-536 limits assumed): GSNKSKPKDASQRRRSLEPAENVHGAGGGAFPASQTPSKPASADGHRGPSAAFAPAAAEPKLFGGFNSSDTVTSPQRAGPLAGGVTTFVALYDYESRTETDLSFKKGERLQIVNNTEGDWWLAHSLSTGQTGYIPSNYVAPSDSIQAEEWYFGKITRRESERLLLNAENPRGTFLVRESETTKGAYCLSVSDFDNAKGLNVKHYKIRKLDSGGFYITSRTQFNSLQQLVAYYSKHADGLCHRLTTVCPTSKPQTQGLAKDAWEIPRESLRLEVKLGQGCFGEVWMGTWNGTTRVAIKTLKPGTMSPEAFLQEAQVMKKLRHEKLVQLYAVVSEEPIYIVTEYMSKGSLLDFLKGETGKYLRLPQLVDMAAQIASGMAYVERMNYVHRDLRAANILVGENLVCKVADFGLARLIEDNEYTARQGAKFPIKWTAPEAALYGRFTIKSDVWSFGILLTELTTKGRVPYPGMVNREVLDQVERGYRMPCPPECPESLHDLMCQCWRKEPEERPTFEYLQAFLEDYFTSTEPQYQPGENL

[13] = Metabolic stability in rat liver microsomes; assay type: ADME, Microsome
[14] = target: MAP kinase-activated protein kinase 2 (Homo sapiens, UniProt P49137); assay: Inhibition of MK2
Chain of MAP kinase-activated protein kinase 2 (P49137 whole entry): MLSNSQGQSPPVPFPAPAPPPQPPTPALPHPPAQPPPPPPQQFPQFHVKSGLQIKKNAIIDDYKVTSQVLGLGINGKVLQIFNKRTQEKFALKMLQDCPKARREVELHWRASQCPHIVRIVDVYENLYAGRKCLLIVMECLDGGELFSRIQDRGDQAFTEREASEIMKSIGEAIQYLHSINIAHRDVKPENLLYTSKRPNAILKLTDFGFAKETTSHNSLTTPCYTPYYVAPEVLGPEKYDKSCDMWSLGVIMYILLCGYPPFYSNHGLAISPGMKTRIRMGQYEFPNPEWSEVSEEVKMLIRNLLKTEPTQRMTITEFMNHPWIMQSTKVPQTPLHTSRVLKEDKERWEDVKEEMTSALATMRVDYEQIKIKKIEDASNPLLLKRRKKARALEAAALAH

[15] = target: Tyrosine-protein kinase HCK (Homo sapiens, UniProt P08631); assay: Inhibition of Hck
Chain of Tyrosine-protein kinase HCK (P08631 whole entry): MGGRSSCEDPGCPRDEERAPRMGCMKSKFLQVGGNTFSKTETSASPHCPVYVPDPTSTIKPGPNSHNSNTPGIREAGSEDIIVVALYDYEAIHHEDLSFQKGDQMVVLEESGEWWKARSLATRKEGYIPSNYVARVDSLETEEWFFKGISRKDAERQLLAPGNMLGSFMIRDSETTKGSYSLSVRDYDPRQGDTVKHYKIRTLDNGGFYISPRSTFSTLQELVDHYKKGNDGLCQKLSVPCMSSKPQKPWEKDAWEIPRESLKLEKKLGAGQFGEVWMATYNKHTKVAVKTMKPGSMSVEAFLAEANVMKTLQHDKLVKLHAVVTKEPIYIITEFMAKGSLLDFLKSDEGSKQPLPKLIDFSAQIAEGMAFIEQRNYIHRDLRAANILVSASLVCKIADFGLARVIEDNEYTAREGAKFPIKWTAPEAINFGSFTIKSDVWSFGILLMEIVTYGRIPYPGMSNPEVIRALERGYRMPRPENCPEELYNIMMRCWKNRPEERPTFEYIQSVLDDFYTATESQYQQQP

[16] = Metabolic stability in mouse liver microsomes; assay type: ADME, Microsome
[17] = target: Protein kinase C beta type (Homo sapiens, UniProt P05771); assay: Inhibition of human full length PKCbeta
[18] = Inhibition of VEGFR
[19] = target: Tyrosine-protein kinase Fyn (Homo sapiens, UniProt P06241); assay: Inhibition of Fyn
Chain of Tyrosine-protein kinase Fyn (P06241 whole entry): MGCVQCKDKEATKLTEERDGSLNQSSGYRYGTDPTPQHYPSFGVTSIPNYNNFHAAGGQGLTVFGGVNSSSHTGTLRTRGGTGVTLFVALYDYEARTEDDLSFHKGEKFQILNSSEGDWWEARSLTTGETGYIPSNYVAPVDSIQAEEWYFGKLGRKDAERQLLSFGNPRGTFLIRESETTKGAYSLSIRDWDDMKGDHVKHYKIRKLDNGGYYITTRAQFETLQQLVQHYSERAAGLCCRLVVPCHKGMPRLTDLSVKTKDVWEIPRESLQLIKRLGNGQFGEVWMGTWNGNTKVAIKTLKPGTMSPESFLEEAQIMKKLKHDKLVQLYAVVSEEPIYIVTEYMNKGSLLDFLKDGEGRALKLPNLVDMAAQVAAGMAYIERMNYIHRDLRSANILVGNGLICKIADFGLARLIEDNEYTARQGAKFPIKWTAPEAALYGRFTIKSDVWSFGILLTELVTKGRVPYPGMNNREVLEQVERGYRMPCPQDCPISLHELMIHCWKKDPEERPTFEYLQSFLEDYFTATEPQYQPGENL

Chain of Tyrosine-protein kinase Lyn (P07948 whole entry): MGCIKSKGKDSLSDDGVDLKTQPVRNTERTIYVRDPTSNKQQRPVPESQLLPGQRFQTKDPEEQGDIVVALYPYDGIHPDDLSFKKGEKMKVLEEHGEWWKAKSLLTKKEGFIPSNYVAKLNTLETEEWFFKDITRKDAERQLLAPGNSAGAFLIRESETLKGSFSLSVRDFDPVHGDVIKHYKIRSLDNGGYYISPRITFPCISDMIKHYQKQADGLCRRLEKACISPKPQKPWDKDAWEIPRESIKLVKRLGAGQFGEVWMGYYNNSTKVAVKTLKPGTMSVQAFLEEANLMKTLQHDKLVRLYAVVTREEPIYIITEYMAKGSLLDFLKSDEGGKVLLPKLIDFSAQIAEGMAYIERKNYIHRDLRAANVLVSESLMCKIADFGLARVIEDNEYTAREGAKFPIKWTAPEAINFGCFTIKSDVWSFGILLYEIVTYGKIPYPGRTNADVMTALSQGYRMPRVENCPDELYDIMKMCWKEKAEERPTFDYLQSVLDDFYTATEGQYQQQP
Chain of Protein kinase C delta type (Q05655 whole entry): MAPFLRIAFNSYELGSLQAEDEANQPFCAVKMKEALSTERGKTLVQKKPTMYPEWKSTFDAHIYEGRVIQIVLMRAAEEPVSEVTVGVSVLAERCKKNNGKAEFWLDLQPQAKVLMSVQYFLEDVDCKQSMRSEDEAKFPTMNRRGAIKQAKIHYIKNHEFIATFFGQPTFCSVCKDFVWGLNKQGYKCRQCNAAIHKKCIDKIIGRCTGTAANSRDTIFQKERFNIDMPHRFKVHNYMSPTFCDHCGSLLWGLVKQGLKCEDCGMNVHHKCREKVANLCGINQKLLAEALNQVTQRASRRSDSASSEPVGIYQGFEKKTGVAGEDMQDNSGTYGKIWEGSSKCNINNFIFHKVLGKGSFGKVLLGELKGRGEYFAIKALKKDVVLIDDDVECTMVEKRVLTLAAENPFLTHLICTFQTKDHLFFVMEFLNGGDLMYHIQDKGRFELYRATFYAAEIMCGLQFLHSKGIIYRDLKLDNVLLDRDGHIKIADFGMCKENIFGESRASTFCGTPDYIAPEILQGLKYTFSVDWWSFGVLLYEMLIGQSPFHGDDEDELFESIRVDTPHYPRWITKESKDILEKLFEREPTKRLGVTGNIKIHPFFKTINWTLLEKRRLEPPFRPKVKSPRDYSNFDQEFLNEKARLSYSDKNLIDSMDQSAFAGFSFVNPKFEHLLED

SMILES | IC50 [1] [µM] | IC50 [2] [µM] | IC50 [3] [µM] | Ratio IC50 (Homo sapiens) | further results
Cc1c(Nc2c(C#N)cnc3sc(-c4csc(CN(C)C)c4)cc23)ccc2[nH]ccc12 | 0.051 | 0.41 | – | – | –
Cc1c(Nc2c(C#N)cnc3sc(-c4cncc(CN(C)C)c4)cc23)ccc2[nH]ccc12 | 0.17 | 2.2 | 0.084 | – | –
Cc1c(Nc2c(C#N)cnc3sc(-c4ccc(CN(C)C)cc4)cc23)ccc2[nH]ccc12 | 0.088 | 0.1 | – | – | –
Cc1c(Nc2c(C#N)cnc3sc(-c4ccccc4CN(C)C)cc23)ccc2[nH]ccc12 | 0.38 | 37 | – | – | –
N#Cc1cnc2sc(-c3ccccc3)cc2c1Nc1ccc2[nH]ccc2c1 | – | – | 0.052 | – | –
COc1ccccc1-c1cc2c(Nc3ccc4[nH]ccc4c3C)c(C#N)cnc2s1 | 0.25 | 0.31 | 0.023 | 10 | –
COc1ccc(CN(C)C)cc1-c1cc2c(Nc3ccc4[nH]ccc4c3C)c(C#N)cnc2s1 | 0.024 | 0.023 | 0.0087 | – | IC50 [4]: 0.006 µM
COc1c(CN(C)C)cccc1-c1cc2c(Nc3ccc4[nH]ccc4c3C)c(C#N)cnc2s1 | 0.027 | 1.7 | – | 2 | –

Now from value to compound, other results behind:

IC50 [1] [µM] | IC50 [2] [µM] | IC50 [3] [µM] | Ratio IC50 (Homo sapiens) | SMILES | further results
– | 0.52 | – | 4 | Cc1c(Nc2c(C#N)cnc3sc(-c4cccc(CN(C)C)c4)cc23)ccc2[nH]ccc12 | –
0.41 | 0.23 | – | 4 | Cc1ccc(CN(C)C)cc1-c1cc2c(Nc3ccc4[nH]ccc4c3C)c(C#N)cnc2s1 | –
0.13 | 13 | – | – | COc1ccc(CN(C)C)c(-c2cc3c(Nc4ccc5[nH]ccc5c4C)c(C#N)cnc3s2)c1 | IC50 [5]: 0.095 µM; IC50 [6]: 0.36 µM; half-life [7]: < 10 min; IC50 [8]: > 5 µM; IC50 [9]: > 5 µM; solubility [10]: 12 µg/mL (≈ 25.7 µM); Papp [11]: 1.04 ×10⁻⁶ cm/s; IC50 [12]: > 5 µM; half-life [13]: < 10 min; IC50 [14]: > 5 µM; IC50 [15]: > 5 µM; half-life [16]: < 10 min; IC50 [17]: 22 µM; IC50 [18]: > 5 µM; IC50 [19]: > 5 µM
0.082 | 0.074 | 0.0092 | 9 | CCOc1ccc(CN(C)C)cc1-c1cc2c(Nc3ccc4[nH]ccc4c3C)c(C#N)cnc2s1 | –
